Laboratory results reported in US10738080B2, “Inhibitors of beta integrin-G protein alpha subunit binding interactions” (priority 2010, dated 2020).
No end group written: not given here. *: point of attachment. Myristoyl = CCCCCCCCCCCCCC(=O)*

Target: T1, Gα13 binding to β3 (Homo sapiens, UniProt P05106+Q14344)
T1 construct: Proteins from platelet lysates were immunoprecipitated with control IgG or antibody to Gα13; The integrin αIIbβ3 was co-immunoprecipitated by anti-Gα13 antibody, but not control IgG, from platelet lysates; endogenous in cells; host or cells: washed human platelets (lysates)
T1 sequence (Q14344 1-377): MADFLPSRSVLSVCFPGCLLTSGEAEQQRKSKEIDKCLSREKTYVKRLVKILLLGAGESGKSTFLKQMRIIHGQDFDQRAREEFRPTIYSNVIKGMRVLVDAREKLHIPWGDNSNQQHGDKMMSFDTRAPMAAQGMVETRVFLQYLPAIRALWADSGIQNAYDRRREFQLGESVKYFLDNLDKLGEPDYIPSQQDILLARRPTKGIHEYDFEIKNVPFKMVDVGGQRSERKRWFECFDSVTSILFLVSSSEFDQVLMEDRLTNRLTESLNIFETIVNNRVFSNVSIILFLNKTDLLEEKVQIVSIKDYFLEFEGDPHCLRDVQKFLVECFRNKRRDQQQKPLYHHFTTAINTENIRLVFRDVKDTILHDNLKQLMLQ
T1 sequence (P05106 27-788): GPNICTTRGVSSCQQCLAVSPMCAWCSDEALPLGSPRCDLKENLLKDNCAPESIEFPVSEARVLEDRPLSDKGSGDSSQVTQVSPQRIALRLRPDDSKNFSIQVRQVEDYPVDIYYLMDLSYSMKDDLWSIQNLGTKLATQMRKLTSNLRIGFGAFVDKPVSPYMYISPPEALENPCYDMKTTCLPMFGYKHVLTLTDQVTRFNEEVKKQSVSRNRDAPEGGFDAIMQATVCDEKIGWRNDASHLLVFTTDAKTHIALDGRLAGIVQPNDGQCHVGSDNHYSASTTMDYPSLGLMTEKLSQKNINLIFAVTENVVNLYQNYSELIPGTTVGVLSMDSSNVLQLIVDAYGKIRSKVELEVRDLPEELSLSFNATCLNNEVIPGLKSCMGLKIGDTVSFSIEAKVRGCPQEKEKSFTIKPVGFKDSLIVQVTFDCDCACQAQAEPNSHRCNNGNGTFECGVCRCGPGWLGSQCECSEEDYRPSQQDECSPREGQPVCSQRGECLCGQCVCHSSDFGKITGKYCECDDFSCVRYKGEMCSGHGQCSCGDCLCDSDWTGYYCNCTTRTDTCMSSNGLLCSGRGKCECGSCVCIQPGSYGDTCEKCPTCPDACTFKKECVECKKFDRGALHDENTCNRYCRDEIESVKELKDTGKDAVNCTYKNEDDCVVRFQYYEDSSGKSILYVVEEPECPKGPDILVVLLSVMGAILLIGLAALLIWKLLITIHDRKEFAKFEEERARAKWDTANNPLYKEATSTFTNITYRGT
Assay: Co-immunoprecipitation of β3 with Gα13 from platelet lysates
Settings: for co-immunoprecipitation between Gα13 and β3: platelets/platelet lysates, 500 μM peptide
Method: As previously described (S7), cell lysates were incubated with 2 μg/ml of D57 (antibody to integrin αIIbβ3), LJP3 (antibody against GPIb), or mouse IgG, and further incubated with protein G-conjugated Sepharose beads. Cell lysates were also incubated with rabbit anti-Gα13 IgG antibody (1.5 μg/ml) or an equal amount of rabbit IgG and further incubated with protein A-conjugated Sepharose beads. After 3-6 washes with lysis buffer, immunoprecipitates were analyzed by SDS-polyacrylamide gel electrophoresis and Western blots with antibodies against β3 (MAb15), GPIb (anti-IbαC (S8)) or Gα13. In some experiments, 1 μM GDP, 1 μM GTPγS or 30 μM AlF4^− were added to the reaction to assess the effect of Gα13 activation on integrin binding. In other experiments, 250 μM mSRI or scrambled control peptide was incubated with platelet lysates prior to immunoprecipitation. GST bead pull down analysis was previously described (S7). Purified Gα13 was incubated with glutathione beads-bound to GST, GST-β1CD or GST-β3 CD at 4° C. overnight. Bead-bound proteins were analyzed by immunoblotting. For GST-β3CD cDNA construction, integrin-β3 cytoplasmic domain (716-762) cDNA was generated by PCR and cloned into pGEX-4T2 vector using Bam HI and Xho I restriction sites. The forward primer is 5′-[…]-3′ (SEQ ID NO: 48); the reverse primer is 5′-[…]-3′ (SEQ ID NO: 49). For GST-I31CD cDNA construction, β1 cytoplasmic domain (752-798) cDNA was amplified by PCR and cloned into pGEX-4T1 vector using EcoRI and Xho I restriction sites. The primer sequences are: (1) forward: 5′-[…]-3′ (SEQ ID NO: 50); (2) reverse: […]-3′ (SEQ ID NO: 51). GST, GST-β1CD and GST-β3CD were purified from BL21 (DE3) E. coli using glutathione-conjugated beads.
Cell lysates were incubated with rabbit anti-Gα13 IgG (1.5 μg/ml), anti-integrin β3 rabbit serum (5 μl/ml) or an equal amount of rabbit IgG or pre-immune serum at 4° C. overnight, and subsequently with protein A-conjugated Sepharose beads for 1 hour. For the integrin β3 clustering experiment, human platelets (3×10^8) were stimulated with 0.025 U/ml α-thrombin for 2 minutes at room temperature (to avoid platelet aggregation) with or without 2 mM RGDS, then incubated with 5 μl anti-integrin β3 8053 rabbit serum at room temperature for 1 hour, and 5 μg goat anti-rabbit secondary antibody for another 1 hour. Platelets were then solubilized in modified RIPA Buffer. For the un-clustering control and pre-immune serum control, cells were solubilized in modified RIPA Buffer first, than incubated with 5 μl 8053 serum or pre-immune serum. After 3-6 washes with lysis buffer, immunoprecipitates were analyzed by SDS-polyacrylamide gel electrophoresis and Western blots using antibodies against β3, talin, or Gα13. In some experiments, 500 μM control or inhibitor peptides, mP5, mP7 and mP13 were incubated with platelet lysates prior to immunoprecipitation, or 2 mM RGDS was added into washed human platelets before stimulation by 0.025 U/ml α-thrombin. GST bead pull down analysis was previously described^8. Purified Gα13 or MBP-talin head were incubated with glutathione beads-bound to GST or GST-β3CD at 4° C. overnight. Bead-bound proteins were analyzed by immunoblotting.

Substance	co-immunoprecipitation between Gα13 and β3	Gα13 binding to β3 (co-immunoprecipitation of β3 with Gα13) (platelet lysates, 250 μM peptide)
Myr-EEERA [mP5]	inhibited	
Myristoyl-KFEEERARAKWDT [mP13]	inhibited	
Myristoyl-LLARRPTKGIHEY [mSRI]		inhibited
Myristoyl-KFEEERA [mP7]	inhibited	
